Article PMC6277767, “Broad and Region-Specific Impacts of the Synthetic Cannabinoid CP 55,940 in Adolescent and Adult Female Mouse Brains” (Frontiers in Molecular Neuroscience, 2018)

Test system: CD1 female mouse brain lipidome
Assay: Brain-region lipid levels (HPLC/MS/MS lipidomics) 2 h after single i.p. 3 mg/kg CP 55,940 vs vehicle
Assay type: in vivo
Procedure: The Bloomington Institutional Animal Care and Use Committee of Indiana University reviewed and approved the animal procedures. Female mice from the CD1 strain were utilized to match our study examining THC’s effects on the brain lipidome ([Leishman et al., 2018]). Mice were given a single i.p. injection of either 3 mg/kg CP or 1:1:18 cremophor:ethanol:saline vehicle (please refer to the section “3 mg/kg CP Is Relevant for Synthetic Cannabinoid Abuse and Has Stronger Effects on the Female Mouse Brain Lipidome During Adolescence” for a justification of dose and use of female mice). Three different age groups were given injections: PND 35 and PND 50 adolescents, and adult mice (PND 113). At least eight mice in each age group received CP and at least eight received vehicle. Matching the THC study time course ([Leishman et al., 2018]), mice were sacrificed via rapid decapitation 2 h after injection. Brains were immediately removed and flash-frozen in liquid nitrogen, and then stored at -80°C until dissections were performed. Brains were dissected on an ice-cold dissection plate into the following regions: STR, HIPP, CER, THAL, CTX, HYP, MID, and STEM. These abbreviations for these brain areas will be used exclusively when discussing the results generated by these specific dissections. Each dissected area was immediately placed in liquid nitrogen and then stored at -80°C until used for lipid extraction.
Tissue extracts were performed as previously described ([Bradshaw et al., 2006]; [Stuart et al., 2013]; [Raboune et al., 2014]; [Leishman et al., 2016a],[b], [2017], [2018]). First, samples were shock frozen in liquid nitrogen, weighed, and transferred to a centrifuge tube. The mass of the largest sample was multiplied by 50 to determine how many milliliters of HPLC-grade methanol (Fisher, Fair Lawn, NJ, United States) to add. Then, samples were spiked with 500 pmol deuterium-labeled NAGly (d8NAGly; Cayman Chemical, Ann Arbor, MI, United States). Samples were placed on ice in darkness for 2 h then individually homogenized and centrifuged at 19,000 × g for 20 min at 20°C. Supernatants were diluted with HPLC water (purified in house) to make a solution of 75% water, 25% supernatant. Lipids were partially purified on C18 solid phase extraction columns (Agilent, Palo Alto, CA, United States). A series of four elutions with 1.5 mL of 60%, 75%, 85%, and 100% methanol were collected ([Stuart et al., 2013]; [Leishman et al., 2016a],[b], [2018]).
As previously described ([Bradshaw et al., 2006]; [Tan et al., 2006]; [Smoum et al., 2010]; [Stuart et al., 2013]; [Tortoriello et al., 2013]; [Raboune et al., 2014]; [Leishman et al., 2016a],[b], [2017], [2018]), samples were analyzed using an Applied Biosystems API 3000 triple quadrupole mass spectrometer with electrospray ionization (Foster City, CA, United States). Using an Agilent XDB-C18 reversed phase analytical column and optimized mobile phase gradients, 20 μL from each elution were chromatographed. Two Shimadzu 10ADvp pumps (Columbia, MD, United States) provided the pressure for gradient elution. Mobile phase A: 20% methanol, 80% water (v/v) and 1 mM ammonium acetate (Sigma, St. Louis, MO, United States). Mobile phase B: 100% methanol, 1 mM ammonium acetate. Every method run began with 0% mobile phase B, reached 100% mobile phase B flowing at 0.2 mL/min, and gradually returned to 0% mobile phase B.
This screening library will be referred to as the lipidome when discussing data from this study. HPLC/MS/MS data were analyzed using Analyst software (Applied Biosystems) ([Bradshaw et al., 2006]; [Tan et al., 2006]; [Stuart et al., 2013]; [Tortoriello et al., 2013]; [Raboune et al., 2014]; [Leishman et al., 2016a],[b], [2017], [2018]). Chromatograms (Supplementary Figure 3) were generated by determining the retention time of analytes from the analytical column with a [M-1] or [M+1] parent peak and a fragmentation peak corresponding to the programmed values. […]

[1] = striatum, adult, 3 mg/kg CP 55,940, one-way ANOVA p .007
[2] = striatum, adult, 3 mg/kg CP 55,940, one-way ANOVA p .015
[3] = striatum, adult, 3 mg/kg CP 55,940, one-way ANOVA p .017
[4] = striatum, adult, 3 mg/kg CP 55,940, one-way ANOVA p .019
[5] = striatum, adult, 3 mg/kg CP 55,940, one-way ANOVA p .043
[6] = striatum, adult, 3 mg/kg CP 55,940, one-way ANOVA p .071
[7] = striatum, adult, 3 mg/kg CP 55,940, one-way ANOVA p .075
[8] = striatum, PND 35, 3mg/kg CP 55,940
[9] = thalamus, PND 50, 3 mg/kg CP 55,940

CCCCCCC(C)(C)c1ccc([C@@H]2C[C@H](O)CC[C@H]2CCCO)c(O)c1 [CP 55,940]
N-docosahexaenoyl ethanolamine, Direction (relative to Veh) [1]: ↓ | N-docosahexaenoyl ethanolamine, Magnitude (x Veh level) [1]: 0.75 x Veh level | N-linoleoyl ethanolamine, Direction (relative to Veh) [2]: ↓ | N-linoleoyl ethanolamine, Magnitude (x Veh level) [2]: 0.68 x Veh level | N-arachidonoyl ethanolamine, Direction (relative to Veh) [3]: ↓ | N-arachidonoyl ethanolamine, Magnitude (x Veh level) [3]: 0.66 x Veh level | Arachidonic acid, Direction (relative to Veh) [4]: ↓ | Arachidonic acid, Magnitude (x Veh level) [4]: 0.87 x Veh level | N-oleoyl ethanolamine, Direction (relative to Veh) [5]: ↓ | N-oleoyl ethanolamine, Magnitude (x Veh level) [5]: 0.65 x Veh level | N-oleoyl leucine Direction (relative to Veh) [5]: ↑ | N-oleoyl leucine Magnitude (x Veh level) [5]: 1.20 x Veh level | 2-arachidonoyl glycerol, Direction (relative to Veh) [6]: ↓ | 2-arachidonoyl glycerol, Magnitude (x Veh level) [6]: 0.78 x Veh level | N-palmitoyl serine, Direction (relative to Veh) [7]: ↓ | N-palmitoyl serine, Magnitude (x Veh level) [7]: 0.79 x Veh level | 2-arachidonoyl glycerol: Direction (relative to Veh) [8]: ↓ | 2-arachidonoyl glycerol: Magnitude (x Veh level) [8]: 0.70 x Veh level | 2-linoleoyl glycerol: Direction (relative to Veh) [8]: ↓ | 2-linoleoyl glycerol: Magnitude (x Veh level) [8]: 0.57 x Veh level | 2-oleoyl glycerol: Direction (relative to Veh) [8]: ↓ | 2-oleoyl glycerol: Magnitude (x Veh level) [8]: 0.86 x Veh level | N-arachidonoyl GABA: Direction (relative to Veh) [8]: ↓ | N-arachidonoyl GABA: Magnitude (x Veh level) [8]: 0.66 x Veh level | N-arachidonoyl alanine: Direction (relative to Veh) [8]: ↓ | N-arachidonoyl alanine: Magnitude (x Veh level) [8]: 0.77 x Veh level | N-arachidonoyl glycine: Direction (relative to Veh) [8]: ↓ | N-arachidonoyl glycine: Magnitude (x Veh level) [8]: 0.87 x Veh level | N-arachidonoyl phenylalanine: Direction (relative to Veh) [8]: ↓ | N-arachidonoyl phenylalanine: Magnitude (x Veh level) [8]: 0.83 x Veh level | N-arachidonoyl serine: Direction (relative to Veh) [8]: ↓ | N-arachidonoyl serine: Magnitude (x Veh level) [8]: 0.64 x Veh level | N-arachidonoyl taurine: Direction (relative to Veh) [8]: ↓ | N-arachidonoyl taurine: Magnitude (x Veh level) [8]: 0.91 x Veh level | N-arachidonoyl tyrosine: Direction (relative to Veh) [8]: ↓ | N-arachidonoyl tyrosine: Magnitude (x Veh level) [8]: 0.77 x Veh level | N-docosahexaenoyl GABA: Direction (relative to Veh) [8]: ↓ | N-docosahexaenoyl GABA: Magnitude (x Veh level) [8]: 0.68 x Veh level | N-docosahexaenoyl alanine: Direction (relative to Veh) [8]: ↓ | N-docosahexaenoyl alanine: Magnitude (x Veh level) [8]: 0.72 x Veh level | N-docosahexaenoyl ethanolamine: Direction (relative to Veh) [8]: ↓ | N-docosahexaenoyl ethanolamine: Magnitude (x Veh level) [8]: 0.74 x Veh level | N-docosahexaenoyl leucine: Direction (relative to Veh) [8]: ↑ | N-docosahexaenoyl leucine: Magnitude (x Veh level) [8]: 1.46 x Veh level | N-docosahexaenoyl serine: Direction (relative to Veh) [8]: ↓ | N-docosahexaenoyl serine: Magnitude (x Veh level) [8]: 0.68 x Veh level | N-oleoyl GABA: Direction (relative to Veh) [8]: ↓ | N-oleoyl GABA: Magnitude (x Veh level) [8]: 0.76 x Veh level | N-oleoyl alanine: Direction (relative to Veh) [8]: ↓ | N-oleoyl alanine: Magnitude (x Veh level) [8]: 0.89 x Veh level | N-oleoyl ethanolamine: Direction (relative to Veh) [8]: ↓ | N-oleoyl ethanolamine: Magnitude (x Veh level) [8]: 0.60 x Veh level | N-oleoyl glycine: Direction (relative to Veh) [8]: ↓ | N-oleoyl glycine: Magnitude (x Veh level) [8]: 0.88 x Veh level | N-palmitoyl ethanolamine: Direction (relative to Veh) [8]: ↓ | N-palmitoyl ethanolamine: Magnitude (x Veh level) [8]: 0.72 x Veh level | N-palmitoyl leucine: Direction (relative to Veh) [8]: ↑ | N-palmitoyl leucine: Magnitude (x Veh level) [8]: 1.17 x Veh level | N-palmitoyl valine: Direction (relative to Veh) [8]: ↑ | N-palmitoyl valine: Magnitude (x Veh level) [8]: 1.68 x Veh level | N-stearoyl alanine: Direction (relative to Veh) [8]: ↓ | N-stearoyl alanine: Magnitude (x Veh level) [8]: 0.90 x Veh level | N-stearoyl leucine: Direction (relative to Veh) [8]: ↓ | N-stearoyl leucine: Magnitude (x Veh level) [8]: 0.81 x Veh level | N-stearoyl serine: Direction (relative to Veh) [8]: ↓ | N-stearoyl serine: Magnitude (x Veh level) [8]: 0.86 x Veh level | N-stearoyl valine: Direction (relative to Veh) [8]: ↑ | N-stearoyl valine: Magnitude (x Veh level) [8]: 1.43 x Veh level | PGE2: Direction (relative to Veh) [8]: ↑ | PGE2: Magnitude (x Veh level) [8]: 1.25 x Veh level | PGF2α: Direction (relative to Veh) [8]: ↑ | PGF2α: Magnitude (x Veh level) [8]: 1.30 x Veh level | 2-arachidonoyl glycerol: Direction (relative to Veh) [9]: ↓ | 2-arachidonoyl glycerol: Magnitude (x Veh level) [9]: 0.84 x Veh level | 2-linoleoyl glycerol: Direction (relative to Veh) [9]: ↓ | 2-linoleoyl glycerol: Magnitude (x Veh level) [9]: 0.68 x Veh level | 2-oleoyl glycerol: Direction (relative to Veh) [9]: ↓ | 2-oleoyl glycerol: Magnitude (x Veh level) [9]: 0.78 x Veh level | 6-ketoPGF1α: Direction (relative to Veh) [9]: ↑ | 6-ketoPGF1α: Magnitude (x Veh level) [9]: 1.52 x Veh level | Arachidonic acid: Direction (relative to Veh) [9]: ↓ | Arachidonic acid: Magnitude (x Veh level) [9]: 0.77 x Veh level | Linoleic acid: Direction (relative to Veh) [9]: ↓ | Linoleic acid: Magnitude (x Veh level) [9]: 0.73 x Veh level | N-arachidonoyl GABA: Direction (relative to Veh) [9]: ↓ | N-arachidonoyl GABA: Magnitude (x Veh level) [9]: 0.68 x Veh level | N-arachidonoyl ethanolamine: Direction (relative to Veh) [9]: ↓ | N-arachidonoyl ethanolamine: Magnitude (x Veh level) [9]: 0.85 x Veh level | N-arachidonoyl glycine: Direction (relative to Veh) [9]: ↓ | N-arachidonoyl glycine: Magnitude (x Veh level) [9]: 0.63 x Veh level | N-arachidonoyl phenylalanine: Direction (relative to Veh) [9]: ↓ | N-arachidonoyl phenylalanine: Magnitude (x Veh level) [9]: 0.51 x Veh level | N-arachidonoyl taurine: Direction (relative to Veh) [9]: ↓ | N-arachidonoyl taurine: Magnitude (x Veh level) [9]: 0.88 x Veh level | N-arachidonoyl tyrosine: Direction (relative to Veh) [9]: ↓ | N-arachidonoyl tyrosine: Magnitude (x Veh level) [9]: 0.78 x Veh level | N-docosahexaenoyl GABA: Direction (relative to Veh) [9]: ↓ | N-docosahexaenoyl GABA: Magnitude (x Veh level) [9]: 0.70 x Veh level | N-linoleoyl GABA: Direction (relative to Veh) [9]: ↓ | N-linoleoyl GABA: Magnitude (x Veh level) [9]: 0.57 x Veh level | N-palmitoyl leucine: Direction (relative to Veh) [9]: ↑ | N-palmitoyl leucine: Magnitude (x Veh level) [9]: 1.27 x Veh level
